# Measurements reported in patent publication US9351963B2, “Defensin-like molecules as novel antimicrobial agents” (UNIVERSITY OF MARYLAND, BALTIMORE, priority 2010, dated 2016).
# Assays:
# E. coli = assay: Broth microdilution MIC (CLSI, Micromyx), E. coli; assay type: cell-based; conditions: Escherichia coli
# Procedure: (§1) The antibacterial activity of defensin mimetics against Staphylococcus aureus ATCC 29213 and Escherichia coli 25922 was carried out in a 96-well turbidimetric assay essentially as described (Ericksen, B., Wu, Z., Lu, W., and Lehrer, R. I. (2005) Antimicrob Agents Chemother 49, 269-275) with the following modifications: compounds were exposed for 30 min to […] prior to addition of […] in 10 mM phosphate buffer containing 5% DMSO. Bacterial growth was monitored for 12 hours and data were analyzed as described (Ericksen, et al). Determination of MICs was performed by Micromyx, LLC (Kalamazoo, Mich.) according to CLSI standards (CLSI. (2009) Methods for Dilution Antimicrobial Susceptibility Tests for Bacteria That Grow Aerobically; Approved Standard—Eighth Edition.)
# To confirm the antibacterial killing assays, Minimal Inhibitory Concentrations (MICs, μg/ml) were determined for lead compounds against clinically relevant bacterial strains (Table 3, FIG. 11). […] Experiments were carried out according to CLSI standards (CLSI. (2009) Methods for Dilution Antimicrobial Susceptibility Tests for Bacteria That Grow Aerobically; Approved Standard—Eighth Edition.) by Micromyx, LLC (Kalamazoo, Mich.). […] There was no significant difference for any compound when evaluated against clinically relevant strains (e.g. MRSA, VRE, PRSP).
# S. aureus ATCC 29213 [1] = assay: Murine peritoneal sepsis model; assay type: in vivo, C57BL/6J mice
# Procedure: Adult C57BL/6J mice (˜18 grams, 8-10 weeks old) were used for all experiments. Mice were obtained from the Jackson Laboratory (Bar Harbour, Me., USA) and housed in the IHV SPC animal core facility. Mice were fed standard chow (Harlan Laboratories) and water ad libitum. To assess the protective potency of defensin mimetic BAS00127538, groups of 5 mice were inoculated intraperitoneally ˜10^7 CFU/mL of S. aureus ATCC 29213 in 500 μL saline solution/25% DMSO plus 4.5% (w/v) porcine gastric mucin (Sigma Chemical Co., St Louis, Mo.). Infected animals (n=5) were subsequently treated by intra-peritoneal injection 1 and 4 hours post-infection with 2.5 mg/kg of compound in 100 μL sterile saline solution plus 25% DMSO (V/V), vancomycin/lysostaphin (5 mg/kg, saline solution/25% DMSO) or vehicle (saline solution/25% DMSO) as positive and negative controls respectively. Animals were closely observed during a period of 24 hours and mice that show signs of severe sepsis were humanely euthanized. Blood samples were collected by retro-orbital puncture at the indicated intervals post-infection using lithium-heparin polystyrene tubes to prevent coagulation. Spleens were harvested aseptically, weighed and homogenized in 500 μl of sterile saline solution using an IKA T10 basic disperser (IKA, Wilmington N.C.). Whole blood samples and spleen homogenates were serially diluted and plated onto LB agar plates. Bacterial counts were determined following 24 h incubation at 37° C. and expressed as CFU per milliliter for blood and CFU per gram for spleen.
# Next, a murine model for sepsis was established to evaluate the efficacy of the lead defensin mimetics as antibiotic agents in vivo. […] Mice (n=5) were inoculated intraperitoneally with S. aureus 29213 and treated 1 h and 4 h post-infection with compound BAS00127538 at 2.5 mg/kg intraperitoneally Animals were monitored for survival and blood and spleen samples were collected. Bacterial counts were determined and compared to control treatment with vancomycin/lysostaphin as measures of efficacy (FIG. 6).
# S. aureus ATCC 29213 [2] = assay: Murine peritoneal sepsis model; assay type: in vivo, C57BL/6J mice; conditions: 5 mg/kg intraperitoneally, preliminary experiments (not shown)
# [3] = test system: Staphylococcus aureus ATCC 29213; assay: 96-well turbidimetric antibacterial killing assay, S. aureus; assay type: cell-based
# Procedure: as §1
# [4] = Surface Plasmon Resonance binding to immobilized 3-Lipid II (BIAcore); conditions: defensin mimetics at 10 μM, immobilized 3-Lipid II, 25° C.
# Procedure: Short-chain water-soluble Lipid II containing a lipid tail of three isoprene units was generated and purified essentially as described (Breukink, E., van Heusden, H. E., Vollmerhaus, P. J., Swiezewska, E., Brunner, L., Walker, S., Heck, A. J., and de Kruijff, B. (2003) J Biol Chem 278, 19898-19903). Typically, M. flavus vesicles (120 μmol lipid-Pi) were incubated together with 500 μmol UDP-GlcNAc, 500 μmol UDP-MurNAC-pentapeptide and 400 μmol farnesyl phosphate (3-P) in 100 mM Tris-HCl pH 8.0, 5 mM MgCl2. The incubation lasted two hours at room temperature for 3-P. The synthesis of 3-Lipid II was followed using RP-8 reversed phase TLC (Merck) developed in 75% methanol. For purification, the membranes were removed by centrifugation at 40,000×g and the supernatant was collected and loaded on a C18 HPLC column and eluted with a linear gradient from 50 mM ammonium bicarbonate to 100% methanol in 30 minutes. Farnesyl-Lipid II (3-Lipid II) eluted at approximately 60% methanol. Its identity was confirmed by mass spectroscopy.
# Surface Plasmon Resonance binding experiments were carried out on a BIAcore T100 system (BIAcore Inc., Piscataway, N.Y.) at 25° C. The assay buffer was 10 mM HEPES, 150 mM NaCl, 0.05% surfactant P20, pH 7.4 (±3 mM EDTA) supplemented with 10% DMSO. […] For initial determination of binding, defensin mimetics were introduced into the flow-cells (30 μl/min) in the running buffer at 10 μM. Resonance signals were corrected for nonspecific binding by subtracting the background of the control flow-cell. After each analysis, the sensor chip surfaces were regenerated with 50 mM NaOH for 30 s at a flow rate 100 μl/min, and equilibrated with the buffer prior to next injection. For binding kinetics studies, binding isotherms were analyzed with manufacturer-supplied software for BIAcore T100.
smiles,measurement,setting,value
"CN1/C(=C/C=C/c2cc(-c3ccccc3)cc(-c3ccccc3)[o+]2)C(C)(C)c2ccccc21 [BAS00127538, 2,4-diphenyl-6-[(1E)-3-[(2E)-1,3,3-trimethyl-2,3-dihydro-1H-indol-2-ylidene]prop-1-en-1-yl]-1$1^4-pyran-1-ylium]",MIC,E. coli,4 µg/mL
same,Bacterial counts in spleen and blood,S. aureus ATCC 29213 [1]; 2.5 mg/kg intraperitoneally 1 h and 4 h post-infection,significantly reduced
same,Survival of animals,"S. aureus ATCC 29213 [1]; 2.5 mg/kg intraperitoneally 1 h and 4 h post-infection, n=5 mice",4 out of five
same,Efficacy in vivo in a murine model for sepsis,"S. aureus ATCC 29213 [1]; mouse, in vivo",proven effective
same,Clearing non-lethal doses of S. aureus 29213,S. aureus ATCC 29213 [2],most efficacious
same,Concentration at which compound was 100% bactericidal against S. aureus,[3],0.244 µM
same,Binding to Lipid II as measured by SPR,[4],most strongly bound
